The values that follow come from ChEMBL document CHEMBL5230154, “Chemical probe of AHL modulators on quorum sensing in Gram-Negative Bacteria and as antiproliferative agents: A review” (Eur J Med Chem, 2021).

Test [1] is described as follows: Antagonist activity against quorum sensing system in Pseudomonas aeruginosa PAO1 transfected with rhlA-lacZ reporter gene assessed as inhibition of beta-galactosidase activity incubated for 24 hrs by elastin-Congo red assay. On the technique in general: Reporter assays use an easily measured gene product as a stand-in for the process of interest.
Test [2] can be described thus: Antagonist activity against quorum sensing system in Pseudomonas aeruginosa PAO1 transfected with lasB-lacZ reporter gene assessed as inhibition of beta-galactosidase activity incubated for 24 hrs by elastin-Congo red assay.
Test [3] deals with Pseudomonas aeruginosa. In words: Anti-motility activity against Pseudomonas aeruginosa PAO1 NCTC 10332 assessed as reduction in swarming at 50 uM and measured after 16 hr by swarming assay. Also noted: scale not given: the % may be the effect or the level left. In kind it is functional.
A short description of test [4]: Inhibition of quorum sensing system in Pseudomonas aeruginosa PA14 assessed as inhibition of pyocyanin production by UV-vis spectrophotometric assay.
In test [5] the test system is Pseudomonas aeruginosa. In words: Anti-motility activity against Pseudomonas aeruginosa PAO1 NCTC 10332 assessed as reduction in swimming at 50 uM and measured after 18 hr. Set-up: scale not given: the % may be the effect or the level left. The class given is functional.
Test [6] is described as follows: Inhibition of quorum sensing system in Pseudomonas aeruginosa PAO1 assessed as inhibition of pqsR expression incubated for 4 hrs by RT-PCR analysis.
Test [7] is described as follows: Inhibition of quorum sensing system in Pseudomonas aeruginosa PAO1 assessed as inhibition of RhlR expression incubated for 4 hrs by RT-PCR analysis.
The test system of test [8] is Pseudomonas aeruginosa. In words: Antibiofilm activity against Pseudomonas aeruginosa PAO1 NCTC 10332 assessed as inhibition of biofilm formation incubated for 24 hrs by crystal violet staining based assay. The class given is functional, organism-based. The note with it: PAO1 NCTC 10332, 24 h.
Test [9] can be described thus: Inhibition of quorum sensing system in Pseudomonas aeruginosa PAO1 assessed as decrease in lasA expression at 15 uM incubated for 12 hrs by real-time fluorescent quantitative PCR analysis.
Test [10] in a line: Inhibition of quorum sensing system in Pseudomonas aeruginosa PAO1 assessed as inhibition of pyocyanin production at 15 uM incubated for 12 hrs by spectrophotometric assay.
Test [11] in a line: Inhibition of quorum sensing system in Pseudomonas aeruginosa PAO1 assessed as decrease in pqsR expression at 15 uM incubated for 12 hrs by real-time fluorescent quantitative PCR analysis.
Test [12] can be described thus: Inhibition of quorum sensing system in Pseudomonas aeruginosa PAO1 assessed as decrease in lasI expression at 15 uM incubated for 12 hrs by real-time fluorescent quantitative PCR analysis.
Test [13] is described as follows: Inhibition of quorum sensing system in Pseudomonas aeruginosa PAO1 assessed as decrease in rhlR expression at 15 uM incubated for 12 hrs by real-time fluorescent quantitative PCR analysis.
A short description of test [14]: Inhibition of quorum sensing system in Pseudomonas aeruginosa PAO1 assessed as decrease in pqsA expression at 15 uM incubated for 12 hrs by real-time fluorescent quantitative PCR analysis.
Test [15] relates to Pseudomonas aeruginosa. The experiment in a line: Inhibition of biofilm formation in Pseudomonas aeruginosa PAO1 incubated for 12 hrs by crystal violet staining based analysis. In kind it is functional.
A short description of test [16]: Inhibition of quorum sensing system in Pseudomonas aeruginosa PAO1 assessed as inhibition of elastase production at 15 uM incubated for 12 hrs by Congo red dye based spectrophotometric assay.
Test [17] is described as follows: Inhibition of quorum sensing system in Pseudomonas aeruginosa PAO1 assessed as inhibition of rhamnolipid production at 15 uM incubated for 12 hrs by spectrophotometric assay.
Another test has as its system Serratia marcescens. The experiment in a line: Antibiofilm activity against Serratia marcescens ATCC 27117 assessed as inhibition of biofilm formation incubated for 24 hrs by crystal violet staining based assay. To be noted: ATCC 27117, 24 h. The class given is functional, organism-based.
In test [18] the test system is Escherichia coli. The experiment in a line: Inhibition of Escherichia coli MT102 harbouring pJBA132 expressing Gfp assessed as inhibition of GFP fluorescence expression at 125 uM incubated for 15 hrs by fluorescence microplate reader analysis.
For test [19], the system named is Pseudomonas aeruginosa. In words: Inhibition of Pseudomonas aeruginosa MH602 harboring PlasB::gfp(ASV) reporter assessed as decrease in GFP expression at 250 uM incubated for 22 hrs by fluorescence microplate reader analysis.
Test [20] relates to Escherichia coli. The experiment in a line: Inhibition of Escherichia coli MT102 harbouring pJBA132 expressing Gfp assessed as inhibition of GFP fluorescence expression at 250 uM incubated for 15 hrs by fluorescence microplate reader analysis.
The test system of test [21] is Escherichia coli. In words: Inhibition of Escherichia coli MT102 harbouring pJBA132 expressing Gfp assessed as inhibition of GFP fluorescence expression at 62.5 uM incubated for 15 hrs by fluorescence microplate reader analysis.
The subject of test [22] is Pseudomonas aeruginosa. The experiment in a line: Inhibition of quorum sensing system in Pseudomonas aeruginosa MH602 expressing PlasB::gfp assessed as inhibition of GFP fluorescence expression at 250 uM incubated for 15 hrs by fluorescence microplate reader analysis.
In test [23] the test system is Pseudomonas aeruginosa. In words: Inhibition of quorum sensing system in Pseudomonas aeruginosa MH602 expressing PlasB::gfp assessed as inhibition of GFP fluorescence expression at 62.5 uM incubated for 15 hrs by fluorescence microplate reader analysis.
In test [24] the test system is Pseudomonas aeruginosa. In words: Antagonist activity against quorum sensing system in Pseudomonas aeruginosa PAO-JP2 (plasI-LVAgfp) assessed as inhibition of 3-oxo-C12 HSL induced GFP expression at 100 uM incubated for 6 hrs in presence of 10 uM of 3-oxo-C12-D10 by fluorescence analysis. The note with it: filed as antagonist.
Test [25] relates to Pseudomonas aeruginosa. In words: Antagonist activity against quorum sensing system in Pseudomonas aeruginosa PAO-JP2 (plasI-LVAgfp) assessed as inhibition of 3-oxo-C12 HSL induced GFP expression at 100 uM incubated for 6 hrs in presence of 50 uM of 3-oxo-C12-D10 by fluorescence analysis. The note with it: filed as antagonist.
For test [26], the system named is Pseudomonas aeruginosa. The experiment in a line: Antagonist activity against quorum sensing system in Pseudomonas aeruginosa PAO-JP2 (plasI-LVAgfp) assessed as inhibition of 3-oxo-C12 HSL induced GFP expression at 100 uM incubated for 6 hrs in presence of 100 uM of 3-oxo-C12-D10 by fluorescence analysis. The note with it: filed as antagonist.

The term IC50 denotes the concentration at which inhibition is half-maximal. As for `CCCCCCCCCC(=O)NC1CCCC1` [N-CYCLOPENTYLDECANAMIDE], the results for the IC50 in [1] and in test [2] were 90 µM and 80 µM, respectively.

In the case of `Clc1ccc2c(NCCCCCCCCNCc3cc4ccccc4s3)ccnc2c1`, the Activity with Pseudomonas aeruginosa [3] and with Pseudomonas aeruginosa [5] was 40% throughout. The values for the 50% inhibitory concentration (IC50) in test [4] and in test [6] were 25 µM and 30 µM, respectively.

With `Clc1ccc2c(NCCCCCCCCNCc3cc4ccccc4o3)ccnc2c1`, the Activity in the test with Pseudomonas aeruginosa [3] and in the test with Pseudomonas aeruginosa [5] was 40% throughout. Besides, the IC50 in test [7] amounted to 40 µM; in test [4], 12 µM; in the test with Pseudomonas aeruginosa [8], 50 µM; in test [6], 25 µM.

A word on the inhibition: it is the drop in the measured response relative to a control, in per cent. For `O=C(CSC(=S)N[C@H]1CCOC1=O)NC(=O)Nc1cccc2ccccc12`, the inhibition in test [9] is 71%; in test [10], 33%; in [11], 47.9%; in test [12], 38.9%; in [13], 55.5%; in [14], 67.7%. In addition, the inhibition in test [16] came to 14.3%; in [17], 20.8%. Moreover, the “inhibition (INH)” value in the test with Pseudomonas aeruginosa [15] was 35.3%.

Turning to `NCCCCCCCCCCCCNc1ccnc2cc(Cl)ccc12`, the IC50 in the test with Serratia marcescens is 69 µM; in [4], 2.5 µM; in the test on Pseudomonas aeruginosa [8] it was 69 µM.

Regarding `O=C1C(=O)N(C(=O)CCl)c2ccc([N+](=O)[O-])cc21`, the inhibition in the test on Escherichia coli [18] amounted to 60.8%; in the test on Pseudomonas aeruginosa [19], 57.3%; in the test with Escherichia coli [20] it was 65.8%; in the test on Escherichia coli [21] it was 48.5%.

With `O=C1C(Cl)=C(Cl)CN1CCc1ccc(O)cc1`, the inhibition in the test on Pseudomonas aeruginosa [22] came out at 74%; in the test on Pseudomonas aeruginosa [23], 32.1%.

With `NCCCCCCCCCCCCNc1ccnc2cc(C(F)(F)F)ccc12`, the IC50 in the test on Serratia marcescens and with Pseudomonas aeruginosa [8] was 63 µM each time.

Turning to `CCCCCCCCCC(=O)CC(=O)Nc1ccccc1O`, the inhibition is 60% with Pseudomonas aeruginosa [24], 80% in the test on Pseudomonas aeruginosa [25] and 90% with Pseudomonas aeruginosa [26].
